Changes are numbered by the printed parent chain.
Key:
[1] = target: T1, IDH2 R172K (Homo sapiens, UniProt P48735, R172K); experiment: IDH2 R172K enzymatic assay (NADPH cofactor depletion, diaphorase/resazurin readout); assay type: biochemical; settings: read-out: Enz R172K
T1 sequence (P48735 40-452 R172K): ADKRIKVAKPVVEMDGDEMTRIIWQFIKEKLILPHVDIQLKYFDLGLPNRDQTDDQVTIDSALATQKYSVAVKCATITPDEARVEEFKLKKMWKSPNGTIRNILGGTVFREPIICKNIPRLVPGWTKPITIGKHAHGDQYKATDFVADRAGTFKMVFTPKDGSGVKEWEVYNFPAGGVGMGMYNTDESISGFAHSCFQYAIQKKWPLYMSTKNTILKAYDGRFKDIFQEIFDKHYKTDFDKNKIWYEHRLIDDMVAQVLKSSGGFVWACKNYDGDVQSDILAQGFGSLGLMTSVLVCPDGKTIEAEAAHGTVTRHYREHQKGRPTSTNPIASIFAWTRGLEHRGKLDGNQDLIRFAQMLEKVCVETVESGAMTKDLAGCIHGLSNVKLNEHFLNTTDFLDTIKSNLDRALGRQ
Method in brief: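 Residual NADPH is read out as resorufin fluorescence after quenching with 36 μg/ml diaphorase and 60 μM resazurin in stop mix. The stop follows a 1 h room-temperature reaction started by a substrate mix of NADPH (50 μM) and α-KG (6.3 mM), with compound preincubated with enzyme for 1 h beforehand.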

[2] = target: T2, IDH2 R140Q (Homo sapiens, UniProt P48735, R140Q); experiment: IDH2 R140Q enzymatic assay (cofactor depletion, similar format); assay type: biochemical; settings: read-out: Enz R140Q
T2 sequence (P48735 40-452 R140Q): T1 sequence (P48735 40-452 R172K) with R101Q, K133R

[3] = tested on: U87MG pLVX-IDH2 R140Q-neo cells; experiment: U87MG pLVX-IDH2 R140Q-neo cell based assay, 2-HG in media by LC-MS at 48 hours; settings: Homo sapiens, U-87 MG
Method in brief: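 2-HG secreted into the medium was measured by LC-MS after 48 h of compound treatment (0.2% DMSO final) of U87MG pLVX-IDH2 R140Q-neo cells in DMEM/10% FBS. The same wells were assayed at 72 h by CellTiter-Glo luminescence for effects on growth.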

COC(C)CNc1nc(Nc2ccnc(C(F)(F)F)c2)nc(-c2cccc(C(F)(F)F)n2)n1 (stereo not drawn) [Compound 524, N-(2-Methoxy-propyl)-6-(6-trifluoromethyl-pyridin-2-yl)-N′-(2-trifluoromethyl-pyridin-4-yl)-[1,3,5]triazine-2,4-diamine]
IC50 [1]: < 100 nM | IC50 [2]: 100 to 1000 nM | IC50 [3]: < 100 nM

CC(CO)Nc1nc(Nc2ccnc(C(F)(F)F)c2)nc(-c2cccc(C(F)(F)F)n2)n1 (stereo not drawn) [Compound 527, 2-[4-(6-Trifluoromethyl-pyridin-2-yl)-6-(2-trifluoromethyl-pyridin-4-ylamino)-[1,3,5]triazin-2-ylamino]-propan-1-ol]
IC50 [1]: < 100 nM | IC50 [2]: 100 to 1000 nM | IC50 [3]: < 100 nM

COCCCNc1nc(Nc2ccnc(C(F)(F)F)c2)nc(-c2cccc(C(F)(F)F)n2)n1 [Compound 528, N-(3-Methoxy-propyl)-N′-(2-trifluoromethyl-pyridin-4-yl)-6-(6-trifluoromethyl-pyridin-2-yl)-[1,3,5]triazine-2,4-diamine]
IC50 [1]: 100 to 1000 nM | IC50 [2]: 100 to 1000 nM | IC50 [3]: < 100 nM

FC(F)(F)c1cc(Nc2nc(NC3CCOC3)nc(-c3cccc(C(F)(F)F)n3)n2)ccn1 (stereo not drawn) [Compound 529, N-(Tetrahydro-furan-3-yl)-N′-(2-trifluoromethyl-pyridin-4-yl)-6-(6-trifluoromethyl-pyridin-2-yl)-[1,3,5]triazine-2,4-diamine]
IC50 [1]: < 100 nM | IC50 [2]: 100 to 1000 nM | IC50 [3]: < 100 nM

CC(C)(CO)CNc1nc(Nc2ccnc(C(F)(F)F)c2)nc(-c2cccc(C(F)(F)F)n2)n1 [Compound 530, 2,2-Dimethyl-3-[4-(6-trifluoromethyl-pyridin-2-yl)-6-(2-trifluoromethyl-pyridin-4-ylamino)-[1,3,5]triazin-2-ylamino]-propan-1-ol]
IC50 [1]: 100 to 1000 nM | IC50 [2]: 100 to 1000 nM | IC50 [3]: < 100 nM

CC1(CNc2nc(Nc3ccnc(C(F)(F)F)c3)nc(-c3cccc(C(F)(F)F)n3)n2)CCCO1 (stereo not drawn) [Compound 531, N-(2-Methyl-tetrahydro-furan-2-ylmethyl)-6-(6-trifluoromethyl-pyridin-2-yl)-N′-(2-trifluoromethyl-pyridin-4-yl)-[1,3,5]triazine-2,4-diamine]
IC50 [1]: < 100 nM | IC50 [2]: 100 to 1000 nM | IC50 [3]: < 100 nM

CC1CC1Nc1nc(Nc2ccnc(C(F)(F)F)c2)nc(-c2cccc(C(F)(F)F)n2)n1 (stereo not drawn) [Compound 532, N-(2-Methyl-cyclopropyl)-6-(6-trifluoromethyl-pyridin-2-yl)-N′-(2-trifluoromethyl-pyridin-4-yl)-[1,3,5]triazine-2,4-diamine]
IC50 [1]: < 100 nM | IC50 [2]: 100 to 1000 nM | IC50 [3]: < 100 nM

CC1(Nc2nc(Nc3ccnc(C(F)(F)F)c3)nc(-c3cccc(C(F)(F)F)n3)n2)CC1 [Compound 533, N-(1-Methyl-cyclopropyl)-6-(6-trifluoromethyl-pyridin-2-yl)-N′-(2-trifluoromethyl-pyridin-4-yl)-[1,3,5]triazine-2,4-diamine]
IC50 [1]: < 100 nM | IC50 [2]: 100 to 1000 nM | IC50 [3]: < 100 nM

CC(C)Nc1nc(Nc2ccc(F)nc2)nc(-c2nccc(C(F)(F)F)n2)n1 [Compound 535, N-(6-Fluoro-pyridin-3-yl)-N′-isopropyl-6-(4-trifluoromethyl-pyrimidin-2-yl)-[1,3,5]triazine-2,4-diamine]
IC50 [1]: 100 to 1000 nM | IC50 [2]: 100 to 1000 nM | IC50 [3]: < 100 nM

CC(C)Nc1nc(Nc2cncc(C(F)(F)F)c2)nc(-c2nccc(C(F)(F)F)n2)n1 [Compound 536, N-Isopropyl-N′-(5-trifluoromethyl-pyridin-3-yl)-6-(4-trifluoromethyl-pyrimidin-2-yl)-[1,3,5]triazine-2,4-diamine]
IC50 [1]: 100 to 1000 nM | IC50 [2]: 1000 to 10000 nM | IC50 [3]: < 100 nM

CC(C)Nc1nc(Nc2ccnc(F)c2)nc(-c2nccc(C(F)(F)F)n2)n1 [Compound 537, N-(2-Fluoro-pyridin-4-yl)-N′-isopropyl-6-(4-trifluoromethyl-pyrimidin-2-yl)-[1,3,5]triazine-2,4-diamine]
IC50 [1]: < 100 nM | IC50 [2]: 100 to 1000 nM | IC50 [3]: < 100 nM

From patent US9512107B2, “Therapeutically active compositions and their methods of use” (Agios Pharmaceuticals, Inc., priority 2012, dated 2016)
